Data set [1] has as its system HCV replicon cell line, AVA5 (sub-genomic CON1, genotype 1b). In words: Primary HCV replicon assay, antiviral activity (intracellular HCV RNA). The format is cell-based. On the procedure:
(§1) Antiviral activity of test compounds was assessed in a 3-day assay using the stably-expressing HCV replicon cell line, AVA5 (sub-genomic CON1, genotype 1b) [Korba, B. E. et al. Antiviral Res. 77, 56-63 (2008); Blight et al., Science 290, 1972-1974 (2000)] maintained as sub-confluent cultures on 96-well plates as previously described [Okuse et al., Antiviral Research 65, 23-34 (2005)]. Antiviral activity was determined by blot hybridization analysis of intracellular HCV RNA (normalized to the level of cellular B-actin RNA in each culture sample) and cytotoxicity was assessed by neutral red dye uptake after 3 days of treatment. Additional studies were performed using Huh7 cells containing another HCV replicon, H/FL-Neo, a genotype 1a full length construct [Blight et al., J. Virol. 77, 3181-3190 (2003)]. For studies involving human serum, standard culture medium (which contains 10% fetal bovine serum) and assay conditions were maintained.
(§2) EC50, EC90 and CC50 values (±standard deviations [S.D.]) were calculated by linear regression analysis using data combined from all treated cultures (Korba, B. E. et al. Antiviral Res. 77, 56-63 (2008)). […] Selectivity index (S.I.) was calculated as CC50/EC90 for HBV assays and CC50/EC50 for HCV assays.

Data set [2] is described as follows: Primary HCV replicon assay, cytotoxicity (neutral red dye uptake). Particulars: human. On the procedure:
as §1, §2

Data set [3] relates to HCV replicon cell line, AVA5. Described as above. Conditions: primary assay; neutral red dye uptake after 3 days. On the procedure:
as §1, §2

Data set [4] relates to HCV replicon cell line, AVA5 (sub-genomic CON1, genotype 1b). As to the kind of experiment: Secondary HCV replicon assay, genotype 1B, antiviral activity. The format is cell-based. The method, then: as §1, §2
A short description of data set [5]: Secondary HCV replicon assay, genotype 1B, cytotoxicity (neutral red dye uptake). Conditions: human. The method, then: as §1, §2
The subject of data set [6] is HCV replicon, H/FL-Neo, a genotype 1a full length construct. In words: Secondary HCV replicon assay, genotype 1A, antiviral activity. The format is cell-based. On the procedure: as §1, §2
The nature of data set [7]: Secondary HCV replicon assay, genotype 1A, cytotoxicity (neutral red dye uptake). Conditions: human. The method, then:
as §1, §2

A further data set relates to J6/JFH-1 HCV. In words: Infectious genotype 2a cell culture assay (HCV replication by RT-PCR). In kind it is cell-based. Conditions: for efficacy with regards to HCV replication: Huh7.5/JFH-1 HCV cell culture system; for inhibition of J6/JFH-1 HCV replication: 1 μM test concentration. The method, then:
(§3) Genotype 2a antiviral assays were conducted as previously described [Lindenbach, B. D.; Rice, C. M. et al. Science, 309, 623-626 (2005)]. […] Cell viability was determined using the Calcein assay kit (Biotium, Inc. Hayward, Calif., USA). The alternate method for measuring cell cytotoxicity was via the Guava Technologies ViaCount assay (Millipore) The ViaCount Assay provides rapid and reliable determinations of viability and total cell count. It distinguishes viable and non-viable cells based on differential permeabilities of two DNA-binding dyes in the Guava ViaCount® Reagent. The nuclear dye stains only nucleated cells, while the viability dye brightly stains dying cells. This combination of dyes enables the Guava ViaCount Assay to distinguish viable, apoptotic, and dead cells. Debris is excluded from results based on negative staining with the nuclear dye.
HCV replication levels were determined by RT-PCR on RNA from cell culture supernatants. J6-infected Huh 7.5 cells were seeded in 12-well plates at a density of 2.0E^5 cells/well in 1.5 mL of DMEM supplemented with 10% FBS and 1% Pen/Strep. […] A positive control of IFN-α at concentrations of 10 IU/mL and 50 IU/mL, negative control wells containing mock incubations of DMEM with 1 uL and 10 uL (the same volume of the molecular compounds at 1 uM and 10 uM, respectively) of DMSO was included to rule out nonspecific effects of DMSO on the cells, and J6-infected with only DMEM were used as negative controls. A final control group consisted of un-infected Huh 7.5 cells, plated at the same time and density as the J6-infected cells on a separate plate. 48 hours and 120 hours after incubation with thiazolides, the media was collected and frozen, cells were washed 2× with PBS, and lysed in 500 uL of lysis buffer per well. Following lysis, RNA was extracted from the cells using the RNAqueous-4PCR Kit from Ambion, and the RNA concentration determined using the NanoDrop® machine. Reverse-transcription reactions produced 1.5 μg of cDNA per sample, which was then used for rt-PCR to quantify the HCV viral load in each sample. Analysis of the rt-PCR results generated the fold increases and decreases of the HCV viral load in comparison to untreated J6 cells.

Another data set concerns Huh 7.5 cells. As to the kind of experiment: Cytotoxicity in the infectious genotype 2a cell culture assay. The format is cell-based. On the procedure:
as §3

Data set [8] has as its system HCV replicon cell line, AVA5. As to the kind of experiment: Secondary HCV replicon assay, genotype 1B, cytotoxicity (neutral red dye uptake). Conditions: secondary assay, genotype 1B; neutral red dye uptake. The method, then: as §1, §2
Data set [9] concerns Huh7 cells containing HCV replicon H/FL-Neo. In words: Secondary HCV replicon assay, genotype 1A, cytotoxicity (neutral red dye uptake). Particulars: secondary assay, genotype 1A; neutral red dye uptake. The method, then: as §1, §2
For data set [10] the following is noted: cited from earlier work.
The test system of a further data set is cellular esterases. As to the kind of experiment: Metabolic stability of acetate prodrugs under the cell assay conditions. In kind it is in vitro ADME.
The test system of another data set is cytochrome P450 enzymes. Particulars: cited from earlier work.
The mark [11] stands for this setting: Hepatitis C virus, Ava5, primary assay, 2-fold depression of intracellular HCV RNA, read-out: EC50.
The mark [12] stands for this setting: Hepatitis C virus, Ava5, primary assay, 10-fold depression of intracellular HCV RNA, read-out: EC90.
Where [13] appears, read: primary assay, 2-fold depression of intracellular HCV RNA, read-out: EC50.
Where [14] appears, read: primary assay, 10-fold depression of intracellular HCV RNA, read-out: EC90.

We go through six compounds from patent US8772502B2, “Alkylsulfinyl-substituted thiazolide compounds” (Romark Laboratories, L.C., priority 2010, dated 2014).

Values joined by “and” are separate entries in the source; they are usually repeats but may differ in a detail not shown here. Equal values may be shown once. “Also recorded” adds a separate entry of the source. Read-outs that look alike come from different tables or passages of the source.

As for `CC(=O)Oc1ccccc1C(=O)Nc1nc([S+](C)[O-])cs1` (stereo not drawn) [Compound 1, 2-(4-(methylsulfinyl)thiazol-2-ylcarbamoyl)phenyl acetate], in [1] (Hepatitis C virus, Ava5), the EC50 was above 10 µM and the EC90 was above 10 µM. Moreover, the CC50 at 3 days in data set [2] is above 100 µM.
As to `C[S+]([O-])c1csc(NC(=O)c2ccccc2O)n1` (stereo not drawn) [Compound 2, 2-hydroxy-N-(4-(methylsulfinyl)thiazol-2-yl)benzamide], the EC50 in [1] (setting [11]) worked out at 2 µM; in [4] (Hepatitis C virus, Ava5) it was 2.2 µM; in data set [6] (Hepatitis C virus) it was 2.8 µM. Moreover, the 90% effect concentration (EC90) was 4.6 µM in data set [1] (setting [12]); 6.1 µM in data set [4] (Hepatitis C virus, Ava5); above 5 µM in data set [6] (Hepatitis C virus). The compound also registered a cytotoxic concentration (CC50) in data set [3] of 63 µM. Besides, the CC50 at 3 days in data set [5] and in data set [7] was above 100 µM each time. For the same compound, the “efficacy with regards to HCV replication” value in the data set on J6/JFH-1 HCV is listed as “demonstrated efficacy”. In addition, the “inhibition of J6/JFH-1 HCV replication” value in the data set on J6/JFH-1 HCV (genotype G2a) is recorded as “shown to inhibit J6/JFH-1HCV replication”. The “relative potency, % of NTZ” value in the data set with J6/JFH-1 HCV (genotype G2a, at 0.1 μM) is given as 88 % of NTZ. Besides, in the data set on J6/JFH-1 HCV (genotype G2a, at 1 μM), the “relative activity, % of NTZ” value is 95 % of NTZ. The “cytotoxic effect in Huh 7.5 cells” value is listed as “Neither of these compounds showed a cytotoxic effect” in the data set with Huh 7.5 cells and “without being cytotoxic” in the data set with Huh 7.5 cells (listed as analog 2).
Turning to `CC(=O)Oc1ccccc1C(=O)Nc1ncc([N+](=O)[O-])s1` [NTZ, Nitazoxanide], the EC50 in data set [1] (setting [11]) stood at 0.21 µM; in data set [4] (Hepatitis C virus, Ava5) it was 0.25 µM; in [6] (Hepatitis C virus), 0.33 µM. For the same compound, the EC90 in [1] (setting [12]) was 0.98 µM; in data set [4] (Hepatitis C virus, Ava5), 0.95 µM; in data set [6] (Hepatitis C virus), 1.1 µM. In addition, the CC50 is 31 µM in data set [3], 35 µM in [8] and 49 µM in [9]. In the data set on J6/JFH-1 HCV, the “efficacy with regards to HCV replication” value is given as “demonstrated efficacy”. In the data set on J6/JFH-1 HCV (genotype G2a), the “inhibition of J6/JFH-1 HCV replication” value is on record as “shown to inhibit J6/JFH-1HCV replication”. The “cytotoxic effect in Huh 7.5 cells” value in the data set with Huh 7.5 cells is on record as “without being cytotoxic; also recorded: Neither of these compounds showed a cytotoxic effect”. Further, the detection in plasma result in [10] (after oral 500 mg NTZ tablet) is on record as “not detected”.
As for `CS(=O)(=O)c1cnc(NC(=O)c2ccccc2O)s1` [RM4863], the EC50 turned out to be 1.5 µM in data set [1] (setting [13]), 0.9 µM in data set [4] and 0.8 µM in data set [6]. In addition, the figures for the EC90 in [1] (setting [14]), in data set [4] and in [6] were 5.2 µM, 8.8 µM and 3.4 µM, respectively. The CC50 is 43 µM in [3], above 10 µM in [8] and above 10 µM in data set [9].
Consider `CC(=O)Oc1ccccc1C(=O)Nc1ncc(S(C)(=O)=O)s1` [RM4864], for which the EC50 in data set [1] (setting [13]) was above 10 µM. Further, the concentration for an effect of 90% (EC90) in [1] (setting [14]) was above 10 µM. Also, in [3], half-maximal cytotoxicity (CC50) was put at 20 µM. The “metabolic stability (hydrolysis to the parent phenolic drug)” value in the data set on cellular esterases is on record as “metabolically stable”.
With `O=C(Nc1ncc([N+](=O)[O-])s1)c1ccccc1O` [TIZ, Tizoxanide], the EC50 in [1] (setting [11]) came to 0.15 µM; in data set [4] (Hepatitis C virus, Ava5), 0.19 µM; in data set [6] (Hepatitis C virus), 0.23 µM. Besides, the 90% effect concentration (EC90) in data set [1] (setting [12]) amounted to 0.81 µM; in data set [4] (Hepatitis C virus, Ava5), 0.92 µM; in [6] (Hepatitis C virus), 1 µM. For the same compound, the CC50 in [3] turned out to be 15 µM; in data set [8], 28 µM; in data set [9], 27 µM. In addition, in data set [10] (oral dose of NTZ, feces), the “part of an oral dose excreted in feces as TIZ” value is on record as “Approximately two-thirds”. Further, the “Maximum serum concentrations of TIZ” value in [10] (oral, one 500 mg NTZ tablet (Alinia) with food) is “approximately 10 μg/mL and ~37 μM”. Also, the “elimination half-life of TIZ from plasma” value in data set [10] (plasma) is reported as “approximately 1.5 hours”. Besides, the “inhibition of cytochrome P450 enzymes” value in the data set on cytochrome P450 enzymes is recorded as “does not inhibit”.
